The subject of the experiment is CD4+ T cells. Nature of the experiment: in vitro T-cell activity assay (CD4+ T cell proliferation by CTV intensity, flow cytometry). The format is cell-based, B6J mice. The conditions noted are these: CD3/CD28-activated mouse spleen CD4+ T cells, 72 hours culture; for IC50: Mus musculus, CD4+ T, 72 h, read-out: Immunosuppression IC50. An excerpt: The degree of decrease in immunosuppressive activity of the four novel compounds was investigated by using the conventional in vitro T-cell activity assay (J. Immunol. 143: 718-726, 1989). The division of CD4+ T cells is an indicator that an immune response is taking place, and when CD4+ T cells are stained with Cell Trace™ Violet (CTV) and the cells divide according to the immune response and the T cells proliferate, a phenomenon in which the CTV retention of each cell decreases appears, and thus, the degree of immunosuppressive activity was investigated using this as an indicator.
Single cells were isolated from the spleen of 6 to 8 week-old B6J mice, and CD4+ T cells were isolated using the MagniSort® Mouse CD4 T cell Enrichment Kit (eBioscience). CD4+ T cells were stained with Cell Trace™ Violet (CTV) Cell Proliferation Kit (Molecular Probes), and FK506 or the four novel compounds were added to a concentration of 0.01 ng/mL, 0.1 ng/mL, 1 ng/mL, 10 ng/mL, 100 ng/mL or […], and then, it was cultured for 72 hours. Dynabeads® Mouse T-Activator CD3/CD28 (Gibco) was used for T cell activation. As a control group, non-activated T cells were used. After culture, CTV intensity was analyzed by flow cytometry.

Molecules are shown by their SMILES. Values after ≈ are worked out from the molar mass of the structure shown.

As for `CC[C@@H]1/C=C(\C)C[C@H](C)C[C@H](OC)[C@H]2O[C@@](O)(CC(=O)N3CCC[C@H]3C(=O)O[C@H](/C(C)=C/[C@@H]3CC[C@@H](O)[C@H](O)C3)[C@H](C)[C@@H](O)CC1=O)[C@H](C)C[C@@H]2OC` [9-deoxo-prolylFK520], the “Immunosuppression IC50” value was found to be 3.2888 µg/mL.
With `CCC[C@@H]1/C=C(\C)C[C@H](C)C[C@H](OC)[C@H]2O[C@@](O)(CC(=O)N3CCC[C@H]3C(=O)O[C@H](/C(C)=C/[C@@H]3CC[C@@H](O)[C@H](OC)C3)[C@H](C)[C@@H](O)CC1=O)[C@H](C)C[C@@H]2OC` [9-deoxo-36,37-dihydro-prolylFK506], the half-maximal inhibitory concentration (IC50) came out at 3.09 µg/mL (≈ 3.97 µM).
Same read-out and setting: the value for `C=CC[C@@H]1/C=C(\C)C[C@H](C)C[C@H](OC)[C@H]2O[C@@](O)(C(=O)C(=O)N3CCCC[C@H]3C(=O)O[C@H](/C(C)=C/[C@@H]3CC[C@@H](O)[C@H](OC)C3)[C@H](C)[C@@H](O)CC1=O)[C@H](C)C[C@@H]2OC` [FK506] was 2.7e-05 µg/mL (≈ 3.36e-05 µM).
The same measure, in the same setting: the same measure for `CCC[C@@H]1/C=C(\C)C[C@H](C)C[C@H](OC)[C@H]2O[C@@](O)(CC(=O)N3CCC[C@H]3C(=O)O[C@H](/C(C)=C/[C@@H]3CC[C@@H](O)[C@H](O)C3)[C@H](C)[C@@H](O)CC1=O)[C@H](C)C[C@@H]2OC` [9-deoxo-31-O-demethyl-36,37-dihydro-prolylFK506]: 5.56 µg/mL (≈ 7.27 µM).
